Measurements published in patent US10723695B2, “Microbiocidal phenylamidine derivatives” (SYNGENTA PARTICIPATIONS AG, priority 2015, dated 2020).

How the values were obtained:
[1] = test system: Blumeria graminis f. sp. tritici (Erysiphe graminis f. sp. tritici); experiment: Blumeria graminis f. sp. tritici / wheat / leaf disc preventative (powdery mildew on wheat); type: in vivo; details: foliar, wheat leaf segments cv. Kanzler, compared to untreated control leaf disks, read-out: disease control
Description: Blumeria graminis f. sp. tritici (Erysiphe graminis f. sp. tritici)/Wheat/Leaf Disc Preventative (Powdery Mildew on Wheat) Wheat leaf segments cv. Kanzler were placed on agar in a multiwell plate (24-well format) and sprayed with the formulated test compound diluted in water. The leaf disks were inoculated by shaking powdery mildew infected plants above the test plates 1 day after application.

Phakopsora pachyrhizi = Phakopsora pachyrhizi / soybean / leaf disk preventative (soybean rust); type: in vivo; details: foliar, soybean leaf disks, compared to untreated control leaf disks, read-out: disease control
Method in brief: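 Four-week-old soybean plants sprayed with formulated compound in water; leaf disks cut 1 day later, inoculated on the lower surface with spore suspension. Held 24-36 h dark at 20° C, 75% rh, then 20° C with 12 h light/day; % diseased disk area scored 12-14 days after application.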

[2] = test system: Puccinia recondita f. sp. tritici; experiment: Puccinia recondita f. sp. tritici / wheat / leaf disc preventative (brown rust); type: in vivo; details: foliar, wheat leaf segments cv. Kanzler, compared to untreated control leaf disks, read-out: disease control
Method in brief: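 Wheat leaf segments (cv. Kanzler) on agar were sprayed preventatively with formulated compound diluted in water and inoculated with spores 1 day later. They were incubated at 19 °C, 75% rh, 12 h light/12 h dark. Percent disease control versus untreated was scored 7-9 days after application.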

[3] = test system: Puccinia recondita f. sp. tritici; experiment: Puccinia recondita f. sp. tritici / wheat / leaf disc curative (brown rust); type: in vivo; details: foliar, 24 h, wheat leaf segments cv. Kanzler, curative (applied 1 day after inoculation), compared to untreated control leaf disks, read-out: disease control
Protocol: Puccinia recondita f. sp. tritici/Wheat/Leaf Disc Curative (Brown Rust) Wheat leaf segments cv. Kanzler are placed on agar in multiwell plates (24-well format). The leaf segments are inoculated with a spore suspension of the fungus. Plates were stored in darkness at 19° C. and 75% rh. The formulated test compound diluted in water was applied 1 day after inoculation.

SMILES	pest or weed control at 200 ppm [1]	pest or weed control at 200 ppm (Phakopsora pachyrhizi)	pest or weed control at 200 ppm [2]	pest or weed control at 200 ppm [3]	melting point
CCN(C)/C=N/c1cc(OC)c(C(O)(c2cc(F)ccc2F)C(F)(F)F)cc1C (centres unmarked) [Compound E1.031]	≥ 80%	≥ 80%	≥ 80%	≥ 80%	137 to 140 °C
C=C(C)C(O)(c1cc(C)c(/N=C/N(C)C(C)C)cc1OC)C(F)(F)F (centres unmarked) [Compound E1.081]	≥ 80%	≥ 80%	≥ 80%	≥ 80%	110 to 113 °C
CCN(C)/C=N/c1cc(OC)c(C(O)(c2cccc(Br)c2)C(F)(F)F)cc1C (centres unmarked) [Compound E1.023]	≥ 80%	≥ 80%	≥ 80%	≥ 80%	98 to 100 °C
CCN(C)/C=N/c1cc(OC)c(C(O)(c2ccccc2)C(F)(F)F)cc1C (centres unmarked) [Compound E1.006]	≥ 80%	≥ 80%	≥ 80%	≥ 80%	160 to 162 °C
COc1cc(/N=C/N(C)C(C)C)c(C)cc1[C@](O)(c1ccccc1)C(F)(F)F [Compound E1.027]	≥ 80%	≥ 80%	≥ 80%	≥ 80%	110.5 to 111.7 °C
COc1cc(/N=C/N(C)C(C)C)c(C)cc1C(O)(C1CC1)C(F)(F)F (centres unmarked) [Compound E1.064]	≥ 80%	≥ 80%	≥ 80%	≥ 80%	90 to 93 °C
CCN(C)/C=N/c1cc(OC)c(C(O)(c2ccc(OC)cc2)C(F)(F)F)cc1C (centres unmarked) [Compound E1.011]	≥ 80%	≥ 80%	≥ 80%	≥ 80%	67 to 71 °C
CCN(C)/C=N/c1cc(OC)c(C(O)(c2ccccc2F)C(F)(F)F)cc1C (centres unmarked) [Compound E1.034]	≥ 80%	≥ 80%	≥ 80%	≥ 80%	96 to 98 °C
CCN(C)/C=N/c1cc(OC)c(C(O)(c2ccccc2C)C(F)(F)F)cc1C (centres unmarked) [Compound E1.024]	≥ 80%	≥ 80%	≥ 80%	≥ 80%	115 to 117 °C
C=CCC(O)(c1cc(C)c(/N=C/N(C)C(C)C)cc1OC)C(F)(F)F (centres unmarked) [Compound E1.084]	≥ 80%	≥ 80%	≥ 80%	≥ 80%	45 to 50 °C
CCN(C)/C=N/c1cc(OC)c(C(O)(c2ccc(Cl)cc2Cl)C(F)(F)F)cc1C (centres unmarked) [Compound E1.017]	≥ 80%	≥ 80%	≥ 80%	≥ 80%	119 to 121 °C
CCN(C)/C=N/c1cc(OC)c(C(O)(Cc2cc(C)ncn2)C(F)(F)F)cc1C (centres unmarked) [Compound E1.099]	≥ 80%	≥ 80%	≥ 80%	≥ 80%	82 to 85 °C
CCN(C)/C=N/c1cc(OC)c(C(O)(c2ccc(C)cc2)C(F)(F)F)cc1C (centres unmarked) [Compound E1.020]	≥ 80%	≥ 80%	≥ 80%	≥ 80%	112 to 114 °C
CCN(C)/C=N/c1cc(OC)c(C(O)(C2CC2)C(F)(F)F)cc1C (centres unmarked) [Compound E1.052]	≥ 80%	≥ 80%	≥ 80%	≥ 80%	64 to 72 °C
CCN(C)/C=N/c1cc(OC)c(C(O)(c2cccc(C#N)c2)C(F)(F)F)cc1C (centres unmarked) [Compound E1.022]	≥ 80%	≥ 80%	≥ 80%	≥ 80%	38 to 40 °C
C=CCC(O)(c1cc(C)c(/N=C/N(C)CC)cc1OC)C(F)(F)F (centres unmarked) [Compound E1.071]	≥ 80%	≥ 80%	≥ 80%	≥ 80%	123 to 127 °C
